In ChEMBL document CHEMBL1127771, “Structure-activity relationships in a series of monocyclic endothelin analogues” (Bioorg Med Chem Lett, 1994):
Where a SMILES comes first, the peptide text is derived from it. Bridges are numbered along the chain shown (N, C = ends). [ ]: non-standard residue; d: D form. Aoc = NCCCCCCCC(=O)O; Ava = NCCCCC(=O)O

Experiments:
Endothelin-1 receptor = biological target: T1, Endothelin-1 receptor (Rattus norvegicus, UniProt P26684); assay: In vitro binding affinity against Endothelin A receptor by using endothelin (ET-1) as radioligand in rat heart ventricle
T1 sequence (P26684 whole entry): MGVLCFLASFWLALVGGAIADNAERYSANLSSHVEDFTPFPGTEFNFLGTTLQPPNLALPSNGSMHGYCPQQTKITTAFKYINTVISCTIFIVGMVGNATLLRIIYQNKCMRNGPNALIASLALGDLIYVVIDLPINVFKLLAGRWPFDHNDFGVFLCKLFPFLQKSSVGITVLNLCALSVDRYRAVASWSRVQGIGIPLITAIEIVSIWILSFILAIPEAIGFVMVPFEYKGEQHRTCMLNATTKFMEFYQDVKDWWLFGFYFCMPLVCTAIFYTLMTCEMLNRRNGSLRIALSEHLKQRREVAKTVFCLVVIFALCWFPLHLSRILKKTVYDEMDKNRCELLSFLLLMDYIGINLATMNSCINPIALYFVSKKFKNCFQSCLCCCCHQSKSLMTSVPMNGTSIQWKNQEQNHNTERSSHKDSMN

[1] = biological target: T2, Endothelin receptor type B (Rattus norvegicus, UniProt P21451); assay: Binding affinity against Endothelin B receptor in rat cerebellar membrane (ET-B) from adult blue laurie rat; type: cell membranes, Cerebellum
T2 sequence (P21451 whole entry): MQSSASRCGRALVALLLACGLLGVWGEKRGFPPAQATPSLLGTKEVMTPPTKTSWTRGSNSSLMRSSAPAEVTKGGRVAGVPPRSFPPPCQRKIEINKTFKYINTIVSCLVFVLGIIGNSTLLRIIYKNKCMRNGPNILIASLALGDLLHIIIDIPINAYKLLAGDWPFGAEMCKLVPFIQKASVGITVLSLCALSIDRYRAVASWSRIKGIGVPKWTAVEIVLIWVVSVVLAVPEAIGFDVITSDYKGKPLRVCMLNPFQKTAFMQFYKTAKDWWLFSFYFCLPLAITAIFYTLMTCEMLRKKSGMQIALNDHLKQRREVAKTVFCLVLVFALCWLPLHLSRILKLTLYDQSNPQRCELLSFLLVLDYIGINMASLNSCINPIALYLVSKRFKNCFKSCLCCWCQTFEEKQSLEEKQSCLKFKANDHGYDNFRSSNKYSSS

[2] = biological target: T2, Endothelin receptor type B; assay: Binding affinity against endothelin receptor in rat cerebellar membrane (ET-B) from adult blue laurie rat; type: cell membranes, Cerebellum
Rattus norvegicus = organism: Rattus norvegicus; assay: Inhibition of ET-1 induced accumulation of inositol phosphates (IP-3) in rat skin fibroblasts; type: functional

SMILES | IC50 (Endothelin-1 receptor) | IC50 [1] | IC50 [2] | IC50 (Rattus norvegicus)
CC[C@H](C)[C@H](NC(=O)[C@H](CC(=O)O)NC(=O)[C@H](CC(C)C)NC(=O)[C@H](Cc1c[nH]cn1)NC(=O)[C@@H]1CSSC[C@H](N)C(=O)N[C@@H](CO)C(=O)N[C@@H](CO)C(=O)N[C@@H](C(C)C)C(=O)N[C@@H](Cc2ccc(O)cc2)C(=O)N[C@@H](Cc2ccccc2)C(=O)N1)C(=O)N[C@H](C(=O)N[C@@H](Cc1c[nH]c2ccccc12)C(=O)O)[C@@H](C)CC (H-CSSVYFCHLDIIW-OH; disulfide 1-7) | 1800 nM | 1400 nM |  | 
CC[C@H](C)[C@H](NC(=O)[C@H](CC(=O)O)NC(=O)[C@H](CC(C)C)NC(=O)[C@H](Cc1c[nH]cn1)NC(=O)[C@@H]1CSSC[C@H](N)C(=O)N[C@@H](CO)C(=O)N[C@@H](CC(=O)O)C(=O)N[C@@H](CCCCN)C(=O)N[C@@H](CCC(=O)O)C(=O)N[C@@H](C(C)C)C(=O)N[C@@H](Cc2ccc(O)cc2)C(=O)N[C@@H](Cc2ccccc2)C(=O)N1)C(=O)N[C@H](C(=O)N[C@@H](Cc1c[nH]c2ccccc12)C(=O)O)[C@@H](C)CC (H-CSDKEVYFCHLDIIW-OH; disulfide 1-9) [listing 1 of 2 here] | 3500 nM | 1100 nM |  | 
CC[C@H](C)[C@H](NC(=O)[C@H](CC(=O)O)NC(=O)[C@H](CC(C)C)NC(=O)[C@H](Cc1c[nH]cn1)NC(=O)[C@@H]1CSSC[C@H](N)C(=O)N[C@@H](CO)C(=O)N[C@@H](C(C)C)C(=O)N[C@@H](Cc2ccc(O)cc2)C(=O)N[C@@H](Cc2ccccc2)C(=O)N1)C(=O)N[C@H](C(=O)N[C@@H](Cc1c[nH]c2ccccc12)C(=O)O)[C@@H](C)CC (H-CSVYFCHLDIIW-OH; disulfide 1-6) | 2800 nM | 1700 nM |  | 
CC[C@H](C)[C@H](NC(=O)[C@H](CC(=O)O)NC(=O)[C@H](CC(C)C)NC(=O)[C@H](Cc1cnc[nH]1)NC(=O)[C@@H]1CSSC[C@H](N)C(=O)N[C@@H](CO)C(=O)N[C@@H](CO)C(=O)N[C@@H](CC(C)C)C(=O)N[C@@H](CCSC)C(=O)N[C@@H](CC(=O)O)C(=O)N[C@@H](CCCCN)C(=O)N[C@@H](CCC(=O)O)C(=O)N1)C(=O)N[C@H](C(=O)N[C@@H](Cc1c[nH]c2ccccc12)C(=O)O)[C@@H](C)CC (H-CSSLMDKECHLDIIW-OH; disulfide 1-9) | 49000 nM |  | > 10000 nM | 
CC[C@H](C)[C@H](NC(=O)[C@H](CC(=O)O)NC(=O)[C@H](CC(C)C)NC(=O)[C@H](Cc1c[nH]cn1)NC(=O)[C@@H]1CSSC[C@H](N)C(=O)N[C@@H](CO)C(=O)NCCCCCCCC(=O)N[C@@H](C(C)C)C(=O)N[C@@H](Cc2ccc(O)cc2)C(=O)N[C@@H](Cc2ccccc2)C(=O)N1)C(=O)N[C@H](C(=O)N[C@@H](Cc1c[nH]c2ccccc12)C(=O)O)[C@@H](C)CC (H-CS[Aoc]VYFCHLDIIW-OH; disulfide 1-7) |  |  |  | 3 µM
CC[C@H](C)[C@H](NC(=O)[C@H](CC(=O)O)NC(=O)[C@H](CC(C)C)NC(=O)[C@H](Cc1c[nH]cn1)NC(=O)[C@@H]1CSSC[C@H](N)C(=O)N[C@@H](CO)C(=O)NCCCCC(=O)N[C@@H](C(C)C)C(=O)N[C@@H](Cc2ccc(O)cc2)C(=O)N[C@@H](Cc2ccccc2)C(=O)N1)C(=O)N[C@H](C(=O)N[C@@H](Cc1c[nH]c2ccccc12)C(=O)O)[C@@H](C)CC (H-CS[Ava]VYFCHLDIIW-OH; disulfide 1-7) | 1800 nM |  | 350 nM | > 10 µM
CC[C@H](C)[C@H](NC(=O)[C@H](CC(=O)O)NC(=O)[C@H](CC(C)C)NC(=O)[C@H](Cc1c[nH]cn1)NC(=O)[C@@H]1CSSC[C@H](N)C(=O)N[C@@H](CO)C(=O)NCCCCCCC(=O)N[C@@H](C(C)C)C(=O)N[C@@H](Cc2ccc(O)cc2)C(=O)N[C@@H](Cc2ccccc2)C(=O)N1)C(=O)N[C@H](C(=O)N[C@@H](Cc1c[nH]c2ccccc12)C(=O)O)[C@@H](C)CC [listing 1 of 2 here] |  |  |  | 8 µM
CC[C@H](C)[C@H](NC(=O)[C@H](CC(=O)O)NC(=O)[C@H](CC(C)C)NC(=O)[C@H](Cc1c[nH]cn1)NC(=O)[C@@H]1CSSC[C@H](N)C(=O)N[C@@H](C(C)C)C(=O)N[C@@H](Cc2ccc(O)cc2)C(=O)N[C@@H](Cc2ccccc2)C(=O)N1)C(=O)N[C@H](C(=O)N[C@@H](Cc1c[nH]c2ccccc12)C(=O)O)[C@@H](C)CC (H-CVYFCHLDIIW-OH; disulfide 1-5) | 6500 nM | 1700 nM |  | 2.2 µM
CC[C@H](C)[C@H](NC(=O)[C@H](CC(=O)O)NC(=O)[C@H](CC(C)C)NC(=O)[C@H](Cc1c[nH]cn1)NC(=O)[C@@H]1CSSC[C@H](N)C(=O)N[C@@H](CO)C(=O)NCCCCCCC(=O)N[C@@H](C(C)C)C(=O)N[C@@H](Cc2ccc(O)cc2)C(=O)N[C@@H](Cc2ccccc2)C(=O)N1)C(=O)N[C@H](C(=O)N[C@@H](Cc1c[nH]c2ccccc12)C(=O)O)[C@@H](C)CC [listing 2 of 2 here] | 2500 nM |  |  | 
CC[C@H](C)[C@H](NC(=O)[C@H](CC(=O)O)NC(=O)[C@H](CC(C)C)NC(=O)[C@H](Cc1c[nH]cn1)NC(=O)[C@@H]1CSSC[C@H](N)C(=O)N[C@@H](CO)C(=O)N[C@@H](CO)C(=O)N[C@@H](CO)C(=O)N[C@@H](C(C)C)C(=O)N[C@@H](Cc2ccc(O)cc2)C(=O)N[C@@H](Cc2ccccc2)C(=O)N1)C(=O)N[C@H](C(=O)N[C@@H](Cc1c[nH]c2ccccc12)C(=O)O)[C@@H](C)CC (H-CSSSVYFCHLDIIW-OH; disulfide 1-8) | 1200 nM | 60 nM |  | 5 µM
CC[C@H](C)[C@H](NC(=O)[C@H](CC(=O)O)NC(=O)[C@H](CC(C)C)NC(=O)[C@H](Cc1c[nH]cn1)NC(=O)[C@@H]1CSSC[C@H](N)C(=O)N[C@@H](CO)C(=O)N[C@@H](CC(=O)O)C(=O)N[C@@H](CCCCN)C(=O)N[C@@H](CCC(=O)O)C(=O)N[C@@H](C(C)C)C(=O)N[C@@H](Cc2ccc(O)cc2)C(=O)N[C@@H](Cc2ccccc2)C(=O)N1)C(=O)N[C@H](C(=O)N[C@@H](Cc1c[nH]c2ccccc12)C(=O)O)[C@@H](C)CC (H-CSDKEVYFCHLDIIW-OH; disulfide 1-9) [listing 2 of 2 here] |  |  |  | > 10 µM
CC[C@H](C)[C@H](NC(=O)[C@H](CC(=O)O)NC(=O)[C@H](CC(C)C)NC(=O)[C@H](Cc1cnc[nH]1)NC(=O)[C@@H]1CSSC[C@H](N)C(=O)N[C@@H](CO)C(=O)NCCCCCCCC(=O)N[C@@H](C(C)C)C(=O)N[C@@H](Cc2ccc(O)cc2)C(=O)N[C@@H](Cc2ccccc2)C(=O)N1)C(=O)N[C@H](C(=O)N[C@@H](Cc1c[nH]c2ccccc12)C(=O)O)[C@@H](C)CC (H-CS[Aoc]VYFCHLDIIW-OH; disulfide 1-7) | 1600 nM | 240 nM |  | 
